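Method: 48-hour compound exposure of cells in 96-well plates, five concentrations, linear interpolation of endpoints. At the TGI there is no net growth.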
Columns and labels:
Assay in all cases: growth of human tumour cells (NCI), 48 h
HS 578T breast = system: HS 578T breast
RXF-631 renal = system: RXF-631 renal
LXFL 529 NSCLC = system: LXFL 529 NSCLC
DMS 114 small cell lung = system: DMS 114 small cell lung
CCRF-CEM leukemia = system: CCRF-CEM leukemia
OVCAR-4 ovarian = system: OVCAR-4 ovarian
HOP-18 NSCLC = system: HOP-18 NSCLC
ACHN renal = system: ACHN renal
NCI-H23 lung = system: NCI-H23 lung
KM20L2 colon = system: KM20L2 colon
DMS 273 small cell lung = system: DMS 273 small cell lung
SNB-78 CNS = system: SNB-78 CNS
DLD-1 colon = system: DLD-1 colon
M14 melanoma = system: M14 melanoma
M19-MEL melanoma = system: M19-MEL melanoma
XF 498 CNS = system: XF 498 CNS

Compound	TGI (HS 578T breast) [µM]	TGI (RXF-631 renal) [µM]	TGI (LXFL 529 NSCLC) [µM]	TGI (DMS 114 small cell lung) [µM]	TGI (CCRF-CEM leukemia) [µM]	TGI (OVCAR-4 ovarian) [µM]	TGI (HOP-18 NSCLC) [µM]	TGI (ACHN renal) [µM]	TGI (NCI-H23 lung) [µM]	TGI (KM20L2 colon) [µM]	TGI (DMS 273 small cell lung) [µM]	TGI (SNB-78 CNS) [µM]	TGI (DLD-1 colon) [µM]	TGI (M14 melanoma) [µM]	TGI (M19-MEL melanoma) [µM]	TGI (XF 498 CNS) [µM]
COC1=C(OC)C(=O)c2cc(C)c(=O)c(C)cc2C1=O	63.8	> 100	13.9	12.7	7.06	7.64	29.9	31.1	34.2	40	45.5	45.5	41.4	30.8	11.5	–
Cc1[nH]n(C(=O)Cc2ccccc2)c(=O)c1/C=C1\C(=O)C=Cc2ccccc21	–	–	–	> 100	93.4	> 100	84.6	> 100	> 100	–	> 100	–	–	–	> 100	–
CCCCc1c2c([n+]([O-])c3c1CCCC3)CCCC2	–	–	> 100	> 100	> 100	–	–	43.1	> 100	> 100	> 100	–	–	–	> 100	> 100
N#CC(NNC(=O)c1ccccc1O)c1ccccc1O (configuration not stated)	–	–	> 100	–	> 100	> 100	> 100	> 100	> 100	> 100	> 100	> 100	> 100	29.7	27.2	–
COC(=O)C(Cc1ccc2c(c1)OCO2)(NC(=O)c1ccccc1)P(=O)(OC)OC (configuration not stated)	–	> 100	> 100	> 100	> 100	> 100	–	> 100	> 100	> 100	> 100	> 100	> 100	> 100	> 100	> 100
COc1cc(/C=C(\C#N)C(=O)c2ccccc2)cc(OC)c1OC	–	–	> 100	> 100	> 100	> 100	> 100	> 100	> 100	> 100	> 100	> 100	> 100	> 100	> 100	–
CCCCCCCCCCCCOC(=N)N1CCOCC1	–	22.6	15.1	19.7	9.44	21.2	16.3	27.7	27.4	13.4	25.1	27.8	12.7	14.1	17.7	29.7
CCn1c(O)c(C(=O)Nc2cccs2)c(=O)n(CC)c1=S	–	41.8	55.7	31.7	> 100	70.9	–	63.2	30.5	32.9	–	50.4	> 100	43.8	39	–
Nc1cc2c(C3OC(CO)C(O)C3O)[nH]nc2c(=S)[nH]1 (configuration not stated)	–	> 100	> 100	> 100	> 100	> 100	–	> 100	> 100	> 100	> 100	> 100	> 100	> 100	> 100	> 100
CN(C)CCCCN1c2ccccc2Sc2ccc(N=[N+]=[N-])cc21	18.4	–	–	–	8.39	19.3	–	12.3	27.7	–	–	–	–	3.06	–	–
O=C(O)OC12CCCCCC1C(=O)C1CCCCC12 (configuration not stated)	–	–	> 100	> 100	> 100	> 100	> 100	> 100	> 100	> 100	> 100	> 100	–	> 100	> 100	> 100
COc1ccc(Cc2c3cc(OC)c(OC)cc3cc[n+]2C)cc1	–	> 24	> 24.6	> 28.8	> 100	> 40.5	> 45.8	> 49.9	> 40.2	24.3	–	> 100	> 26.9	> 28.1	> 55.3	> 23.4
CSC(SC)=C1Sc2cccc(Cl)c2S1	–	–	> 100	79.8	> 100	> 100	> 100	> 100	> 100	> 100	> 100	> 100	> 100	> 100	> 100	76.9
O=C(c1ccccc1)N1N=C(C(F)(F)F)CC1(O)C(F)(F)F (configuration not stated)	> 100	–	–	–	> 100	> 100	–	> 100	> 100	–	–	–	–	> 100	–	–
COc1cc(CCNC2=CC(=O)c3ncccc3C2=O)ccc1O	15.6	–	–	–	> 100	12.1	–	29	11.8	–	–	–	–	3.05	–	–
NS(=O)(=O)c1ccc(NCc2cccc3c(=O)c4ccc(Cl)cc4oc23)cc1	82.3	–	–	–	> 52.6	> 100	–	> 100	> 80	–	–	–	–	> 93.1	–	–
CCOC(=O)n1c(=O)nc2c3c(ncn21)Oc1c(c(-c2ccccc2)nn1-c1ccccc1)C3c1ccc(Cl)cc1 (configuration not stated)	3.37	–	–	–	2.72	2.47	–	3.09	3.17	–	–	–	–	3.33	–	–
CC1CC(=O)C(CC(=O)O)[C@H]1C(C(=O)C(=O)Nc1cc(Cl)ccc1Cl)[N+](=O)[O-] (some centres not stated)	–	–	–	> 100	> 100	–	> 100	> 100	–	> 100	–	–	> 100	–	> 100	> 100
COC(=O)C#CC1(O)C=CC(=O)C=C1	16.1	–	–	–	0.758	17	–	10.1	6.28	–	–	–	–	12.1	–	–

From PubChem BioAssay (NCI)
